Assay results: paper PMC5218480 (PLoS ONE, 2017)

Tested on: MV-4-11 cells
Experiment: Gene expression microarray analysis (Affymetrix PrimeView) and GSEA
Type: cell-based, human
Parameters: RFU PODN (11730768_x_at) / Fold change /veh PODN (11730768_x_at) / RFU LINC00158 (11744669_a_at) / Fold change /veh LINC00158 (11744669_a_at) / RFU DUSP10 (11751237_a_at) / Fold change /veh DUSP10 (11751237_a_at) / RFU ID3 (11757404_x_at) / Fold change /veh ID3 (11757404_x_at) / RFU PLEKHG5 (11737974_s_at) / Fold change /veh PLEKHG5 (11737974_s_at) / RFU LRRC4B (11730491_at) / Fold change /veh LRRC4B (11730491_at) / RFU GIMAP4 (11747438_a_at) / Fold change /veh GIMAP4 (11747438_a_at) / RFU KRT8 (11758183_x_at) / Fold change /veh KRT8 (11758183_x_at) / RFU CNN1 (11734310_a_at) / Fold change /veh CNN1 (11734310_a_at) / RFU VPS37D (11726825_at) / Fold change /veh VPS37D (11726825_at) / RFU C10orf10 (11716522_x_at) / Fold change /veh C10orf10 (11716522_x_at) / RFU KIR2DL2 /// KIR2DL4 /// KIR2DL5A /// KIR2DL5B /// KIR2DS1 /// KIR2DS2 /// KIR2DS3 /// KIR2DS4 /// KIR3DL3 /// KIR3DL3 /// KIR3DS1 (11738374_at) / Fold change /veh KIR2DL2 /// KIR2DL4 /// KIR2DL5A /// KIR2DL5B /// KIR2DS1 /// KIR2DS2 /// KIR2DS3 /// KIR2DS4 /// KIR3DL3 /// KIR3DL3 /// KIR3DS1 (11738374_at) / RFU C1QL1 (11718748_at) / Fold change /veh C1QL1 (11718748_at) / RFU TMPRSS4 (11747572_a_at) / Fold change /veh TMPRSS4 (11747572_a_at) / RFU HAMP (11756126_x_at) / Fold change /veh HAMP (11756126_x_at) / RFU RNFT2 (11725882_a_at) / Fold change /veh RNFT2 (11725882_a_at) / RFU NR4A2 (11747474_a_at) / Fold change /veh NR4A2 (11747474_a_at) / RFU ABCC12 (11746883_a_at) / Fold change /veh ABCC12 (11746883_a_at) / RFU TMEM136 (11760407_x_at) / Fold change /veh TMEM136 (11760407_x_at) / RFU CLDN22 /// WWC2 (11732394_at) / Fold change /veh CLDN22 /// WWC2 (11732394_at) / RFU HLA-DPB1 (11760878_x_at) / Fold change /veh HLA-DPB1 (11760878_x_at) / RFU SPINT1 (11716480_a_at) / Fold change /veh SPINT1 (11716480_a_at) / RFU GAP43 (11754022_s_at) / Fold change /veh GAP43 (11754022_s_at) / RFU A4GNT (11735810_at) / Fold change /veh A4GNT (11735810_at) / RFU PRB3 (11715151_x_at) / Fold change /veh PRB3 (11715151_x_at) / RFU TUBB4B (11761932_at) / Fold change /veh TUBB4B (11761932_at) / RFU CAPN14 (11732068_a_at) / Fold change /veh CAPN14 (11732068_a_at) / RFU TMCC2 (11721928_a_at) / Fold change /veh TMCC2 (11721928_a_at) / RFU IRGQ (11745062_a_at) / Fold change /veh IRGQ (11745062_a_at) / RFU FAM174B (11720279_a_at) / Fold change /veh FAM174B (11720279_a_at) / RFU TMPRSS4 (11748680_a_at) / Fold change /veh TMPRSS4 (11748680_a_at) / RFU FAM212B (11763350_a_at) / Fold change /veh FAM212B (11763350_a_at) / RFU PLEKHG5 (11743358_a_at) / Fold change /veh PLEKHG5 (11743358_a_at) / RFU ZSCAN30 (11745921_a_at) / Fold change /veh ZSCAN30 (11745921_a_at) / RFU CMKLR1 (11741424_a_at) / Fold change /veh CMKLR1 (11741424_a_at) / RFU LOC101060620 /// MAPK8IP1 (11723275_at) / Fold change /veh LOC101060620 /// MAPK8IP1 (11723275_at) / RFU SPTSSB (11747773_x_at) / Fold change /veh SPTSSB (11747773_x_at) / RFU PRSS12 (11739890_at) / Fold change /veh PRSS12 (11739890_at) / RFU BIN1 (11741810_x_at) / Fold change /veh BIN1 (11741810_x_at) / RFU WNT11 (11732464_a_at) / Fold change /veh WNT11 (11732464_a_at) / RFU C10orf10 (11716521_a_at) / Fold change /veh C10orf10 (11716521_a_at) / RFU C5orf56 (11738089_at) / Fold change /veh C5orf56 (11738089_at) / RFU CYB561 (11721691_x_at) / Fold change /veh CYB561 (11721691_x_at) / RFU ANKRD19P (11752326_a_at) / Fold change /veh ANKRD19P (11752326_a_at) / RFU OR2T12 /// OR2T33 /// OR2T8 (11738714_s_at) / Fold change /veh OR2T12 /// OR2T33 /// OR2T8 (11738714_s_at) / RFU VCAN (11748164_a_at) / Fold change /veh VCAN (11748164_a_at) / RFU JSRP1 (11732532_at) / Fold change /veh JSRP1 (11732532_at) / RFU KRTAP10-11 (11738290_x_at) / Fold change /veh KRTAP10-11 (11738290_x_at) / RFU MYO3A (11730013_a_at) / Fold change /veh MYO3A (11730013_a_at) / RFU EBF3 (11725865_a_at) / Fold change /veh EBF3 (11725865_a_at) / RFU CAMK2N1 (11719241_x_at) / Fold change /veh CAMK2N1 (11719241_x_at) / RFU C5orf56 (11738088_a_at) / Fold change /veh C5orf56 (11738088_a_at) / RFU OLFML3 (11715873_a_at) / Fold change /veh OLFML3 (11715873_a_at) / RFU LOC100653217 /// NTM (11731650_a_at) / Fold change /veh LOC100653217 /// NTM (11731650_a_at) / RFU MAPK11 (11762145_a_at) / Fold change /veh MAPK11 (11762145_a_at) / RFU FIZ1 (11724087_x_at) / Fold change /veh FIZ1 (11724087_x_at) / RFU OASL (11726364_x_at) / Fold change /veh OASL (11726364_x_at) / RFU SOX15 (11748057_x_at) / Fold change /veh SOX15 (11748057_x_at) / RFU CD79A (11719716_a_at) / Fold change /veh CD79A (11719716_a_at) / RFU HIST1H1D (11736915_at) / Fold change /veh HIST1H1D (11736915_at) / RFU CASKIN2 (11723855_a_at) / Fold change /veh CASKIN2 (11723855_a_at) / RFU LOC730098 (11760151_x_at) / Fold change /veh LOC730098 (11760151_x_at) / RFU OR4N2 (11742367_at) / Fold change /veh OR4N2 (11742367_at) / RFU PRRT2 (11749266_a_at) / Fold change /veh PRRT2 (11749266_a_at) / RFU SNX32 (11753110_a_at) / Fold change /veh SNX32 (11753110_a_at) / RFU CDHR5 (11726645_a_at) / Fold change /veh CDHR5 (11726645_a_at) / RFU RCAN1 (11760418_a_at) / Fold change /veh RCAN1 (11760418_a_at) / RFU FAM167A (11723789_a_at) / Fold change /veh FAM167A (11723789_a_at) / RFU FAM26E (11764081_at) / Fold change /veh FAM26E (11764081_at) / RFU ISYNA1 (11749810_s_at) / Fold change /veh ISYNA1 (11749810_s_at) / RFU ACY1 (11761880_at) / Fold change /veh ACY1 (11761880_at) / RFU 11764098_at / Fold change /veh 11764098_at / RFU SAMD14 (11745864_x_at) / Fold change /veh SAMD14 (11745864_x_at) / RFU NPB (11741838_a_at) / Fold change /veh NPB (11741838_a_at) / RFU TMPRSS6 (11731388_a_at) / Fold change /veh TMPRSS6 (11731388_a_at) / RFU KRTAP10-2 (11738614_at) / Fold change /veh KRTAP10-2 (11738614_at) / RFU ARHGAP8 /// PRR5-ARHGAP8 (11727945_x_at) / Fold change /veh ARHGAP8 /// PRR5-ARHGAP8 (11727945_x_at) / RFU KRTAP5-7 /// NADSYN1 (11734609_at) / Fold change /veh KRTAP5-7 /// NADSYN1 (11734609_at) / RFU RASL12 (11751679_a_at) / Fold change /veh RASL12 (11751679_a_at) / RFU CDKN2B (11736163_a_at) / Fold change /veh CDKN2B (11736163_a_at) / RFU PRF1 (11729649_at) / Fold change /veh PRF1 (11729649_at) / RFU, ZNF638 /// ZNF638-IT1 / Fold change vs veh, ZNF638 /// ZNF638-IT1 / RFU, PANK3 / Fold change vs veh, PANK3 / RFU, SH3YL1 / Fold change vs veh, SH3YL1 / RFU, ZEB2 / Fold change vs veh, ZEB2 / RFU, NRIP1 / Fold change vs veh, NRIP1 / RFU, PTTG1IP / Fold change vs veh, PTTG1IP / RFU, CAPN2 / Fold change vs veh, CAPN2 / RFU, MED14 / Fold change vs veh, MED14 / RFU, SNORA58 / Fold change vs veh, SNORA58 / RFU, C1orf63 / Fold change vs veh, C1orf63 / RFU, LRRFIP1 / Fold change vs veh, LRRFIP1 / RFU, NDUFAF7 / Fold change vs veh, NDUFAF7 / RFU, SLC12A2 / Fold change vs veh, SLC12A2 / RFU, IBTK / Fold change vs veh, IBTK / RFU, ESF1 / Fold change vs veh, ESF1 / Fold change vs veh, TMEM50B / RFU, TAOK1 / Fold change vs veh, TAOK1 / RFU, ACBD3 / Fold change vs veh, ACBD3 / RFU, TMA16 / Fold change vs veh, TMA16 / RFU, RWDD3 / Fold change vs veh, RWDD3 / RFU, BCAT1 / Fold change vs veh, BCAT1 / RFU, EDEM3 / Fold change vs veh, EDEM3 / RFU, TMEM33 / Fold change vs veh, TMEM33 / RFU, WDR75 / Fold change vs veh, WDR75 / RFU, AHCTF1 / Fold change vs veh, AHCTF1 / RFU, TFRC / Fold change vs veh, TFRC / RFU, ZDHHC17 / Fold change vs veh, ZDHHC17 / RFU, NOM1 / Fold change vs veh, NOM1 / RFU, ARL8B / Fold change vs veh, ARL8B / RFU, ZBTB11 / Fold change vs veh, ZBTB11 / RFU, TAMM41 / Fold change vs veh, TAMM41 / RFU, KIAA1704 /// LOC100996395 / Fold change vs veh, KIAA1704 /// LOC100996395 / RFU, ING1 / Fold change vs veh, ING1 / RFU, TRMT61B / Fold change vs veh, TRMT61B / RFU, FUBP3 / Fold change vs veh, FUBP3 / RFU, TP53 / Fold change vs veh, TP53 / RFU, TNKS2 / Fold change vs veh, TNKS2 / RFU, ZFP14 / Fold change vs veh, ZFP14 / RFU, ACTR2 / Fold change vs veh, ACTR2 / RFU, PPP3R1 / Fold change vs veh, PPP3R1 / RFU, PIK3R1 / Fold change vs veh, PIK3R1 / RFU, HNRNPA1 / Fold change vs veh, HNRNPA1 / RFU, RNF170 / Fold change vs veh, RNF170 / RFU, ZNF28 / Fold change vs veh, ZNF28 / RFU, RNGTT / Fold change vs veh, RNGTT / RFU, OGT / Fold change vs veh, OGT / RFU, BRD1 / Fold change vs veh, BRD1 / RFU, MARS / Fold change vs veh, MARS / RFU, ZNF655 / Fold change vs veh, ZNF655 / RFU, FAHD1 / Fold change vs veh, FAHD1 / RFU, BDP1 / Fold change vs veh, BDP1 / RFU, LRRCC1 / Fold change vs veh, LRRCC1 / RFU, ARID1A / Fold change vs veh, ARID1A / RFU, ZNF146 / Fold change vs veh, ZNF146 / RFU, ZNF330 / Fold change vs veh, ZNF330 / RFU, GPN3 / Fold change vs veh, GPN3 / RFU, C9orf123 / Fold change vs veh, C9orf123 / RFU, N4BP2L2 / Fold change vs veh, N4BP2L2 / RFU, ARFIP1 / Fold change vs veh, ARFIP1 / RFU, FAM179B / Fold change vs veh, FAM179B / RFU, BCL10 / Fold change vs veh, BCL10 / RFU, UHRF1BP1L / Fold change vs veh, UHRF1BP1L / RFU, BET1 / Fold change vs veh, BET1 / RFU, CNOT2 / Fold change vs veh, CNOT2 / RFU, ZNF268 / Fold change vs veh, ZNF268 / Fold change vs veh, ZNF507 / RFU, DGCR2 / Fold change vs veh, DGCR2 / RFU, WDSUB1 / Fold change vs veh, WDSUB1 / Fold change vs veh, HSP90B1 /// MIR3652 / RFU, ADSS / Fold change vs veh, ADSS / RFU, GK / Fold change vs veh, GK / RFU, ZNF148 / Fold change vs veh, ZNF148 / RFU, TAF9 / Fold change vs veh, TAF9 / RFU, SLC1A5 / Fold change vs veh, SLC1A5 / RFU, SLMO2 / Fold change vs veh, SLMO2 / RFU, ABCC4 / Fold change vs veh, ABCC4 / RFU, LOC101060439 /// RAP1B / Fold change vs veh, LOC101060439 /// RAP1B / RFU, RFX7 / Fold change vs veh, RFX7 / RFU, GTPBP10 / Fold change vs veh, GTPBP10 / RFU, CNEP1R1 / Fold change vs veh, CNEP1R1 / RFU, BIVM-ERCC5 /// ERCC5 / Fold change vs veh, BIVM-ERCC5 /// ERCC5 / RFU, ILF3 / Fold change vs veh, ILF3 / RFU 11762660_at / Fold change /veh 11762660_at / RFU VCAN (11757783_s_at) / Fold change /veh VCAN (11757783_s_at) / RFU DDX43 (11728927_at) / Fold change /veh DDX43 (11728927_at) / RFU KRT8 (11758188_x_at) / Fold change /veh KRT8 (11758188_x_at) / RFU NKD1 (11759106_at) / Fold change /veh NKD1 (11759106_at) / RFU SRD5A1 (11742802_a_at) / Fold change /veh SRD5A1 (11742802_a_at) / RFU TPSAB1 /// TPSB2 (11721975_s_at) / Fold change /veh TPSAB1 /// TPSB2 (11721975_s_at) / RFU GSTM3 (11746129_a_at) / Fold change /veh GSTM3 (11746129_a_at) / RFU IL23R (11737362_x_at) / Fold change /veh IL23R (11737362_x_at) / RFU TMEM51 (11727254_a_at) / Fold change /veh TMEM51 (11727254_a_at) / RFU PIWIL2 (11732686_x_at) / Fold change /veh PIWIL2 (11732686_x_at) / RFU ORM1 (11744905_x_at) / Fold change /veh ORM1 (11744905_x_at) / RFU CCDC152 (11743942_at) / Fold change /veh CCDC152 (11743942_at) / RFU ECM1 (11717891_a_at) / Fold change /veh ECM1 (11717891_a_at) / RFU IL23R (11748794_a_at) / Fold change /veh IL23R (11748794_a_at) / RFU TNFAIP8L3 (11732012_x_at) / Fold change /veh TNFAIP8L3 (11732012_x_at) / RFU MBOAT4 (11741988_at) / Fold change /veh MBOAT4 (11741988_at) / RFU 11764193_at / Fold change /veh 11764193_at / RFU TMEM53 (11763286_at) / Fold change /veh TMEM53 (11763286_at) / RFU MAGEB2 (11727129_at) / Fold change /veh MAGEB2 (11727129_at) / RFU TMEM200A (11744735_a_at) / Fold change /veh TMEM200A (11744735_a_at) / RFU CCDC152 (11751479_a_at) / Fold change /veh CCDC152 (11751479_a_at) / RFU FAM211A (11726209_a_at) / Fold change /veh FAM211A (11726209_a_at) / RFU RGS16 (11746705_a_at) / Fold change /veh RGS16 (11746705_a_at) / RFU VCAN (11755009_s_at) / Fold change /veh VCAN (11755009_s_at) / RFU RHOB (11743442_s_at) / Fold change /veh RHOB (11743442_s_at) / RFU RGS16 (11720943_a_at) / Fold change /veh RGS16 (11720943_a_at) / RFU RGS16 (11720944_at) / Fold change /veh RGS16 (11720944_at) / RFU, VPS4B / Fold change vs veh, VPS4B / RFU, CREB1 / Fold change vs veh, CREB1 / RFU, DNAJC13 / Fold change vs veh, DNAJC13 / RFU, GNAQ / Fold change vs veh, GNAQ / RFU, CDK5R1 / Fold change vs veh, CDK5R1 / RFU, ZRANB3 / Fold change vs veh, ZRANB3 / RFU, CUL4A / Fold change vs veh, CUL4A / RFU, CCNY / Fold change vs veh, CCNY / RFU, UFL1 / Fold change vs veh, UFL1 / RFU, COG3 / Fold change vs veh, COG3 / RFU, DIAPH2 / Fold change vs veh, DIAPH2 / RFU, SKA2 / Fold change vs veh, SKA2 / RFU, AFF3 / Fold change vs veh, AFF3 / RFU, LMF1 / Fold change vs veh, LMF1 / RFU, IPO11 / Fold change vs veh, IPO11 / RFU, DFFB / Fold change vs veh, DFFB / RFU, FOXP1 / Fold change vs veh, FOXP1 / RFU, CARD8 / Fold change vs veh, CARD8 / RFU, STRN3 / Fold change vs veh, STRN3 / RFU, ADK / Fold change vs veh, ADK / RFU, RASSF2 / Fold change vs veh, RASSF2 / RFU, WIPF1 / Fold change vs veh, WIPF1 / RFU, LARP1B / Fold change vs veh, LARP1B / RFU, RASA1 / Fold change vs veh, RASA1 / RFU, RB1 / Fold change vs veh, RB1 / RFU, PPFIA1 / Fold change vs veh, PPFIA1 / RFU, MAT2A / Fold change vs veh, MAT2A / RFU, CCT5 / Fold change vs veh, CCT5 / RFU, WDR92 / Fold change vs veh, WDR92 / RFU, CUX1 / Fold change vs veh, CUX1 / RFU, TTC7A / Fold change vs veh, TTC7A / RFU, TMEM135 / Fold change vs veh, TMEM135 / RFU, DEPTOR / Fold change vs veh, DEPTOR / RFU, CPM / Fold change vs veh, CPM / RFU, DNAJB6 / Fold change vs veh, DNAJB6 / RFU, CACNA2D3 / Fold change vs veh, CACNA2D3 / RFU, DTX4 / Fold change vs veh, DTX4 / RFU, TFCP2 / Fold change vs veh, TFCP2 / RFU, GMCL1 /// GMCL1P1 / Fold change vs veh, GMCL1 /// GMCL1P1 / RFU, AEBP2 / Fold change vs veh, AEBP2 / RFU, SNHG1 /// SNORD22 /// SNORD25 /// SNORD26 /// SNORD27 /// SNORD28 /// SNORD29 /// SNORD31 / Fold change vs veh, SNHG1 /// SNORD22 /// SNORD25 /// SNORD26 /// SNORD27 /// SNORD28 /// SNORD29 /// SNORD31 / Fold change (Aza/veh), C12orf56 (ProbeSet 11735607_a_at) / Fold change (ACY-1035/veh), C12orf56 (ProbeSet 11735607_a_at) / Fold change (Aza/veh), FGFR1OP (ProbeSet 11751329_s_at) / Fold change (ACY-1035/veh), FGFR1OP (ProbeSet 11751329_s_at) / Fold change (Aza/veh), VPS36 (ProbeSet 11739960_a_at) / Fold change (ACY-1035/veh), VPS36 (ProbeSet 11739960_a_at) / RFU SYPL1 (11715823_x_at) / Fold change /veh SYPL1 (11715823_x_at) / RFU IGFBP7 (11715501_s_at) / Fold change /veh IGFBP7 (11715501_s_at) / RFU REEP3 (11722064_at) / Fold change /veh REEP3 (11722064_at) / RFU IGLL1 (11728026_x_at) / Fold change /veh IGLL1 (11728026_x_at): dose or concentration left out as unconfirmed
Settings: MV-4-11 cells, 48 hours

Nc1ccc(-c2cccs2)cc1NC(=O)c1ccc2c(c1)cc(C1CC1)n2CCN1CCOCC1 [ACY-1035]
Fold change /veh LOC101060620 /// MAPK8IP1 (11723275_at): 0.98
